Measurements as given in article PMC8640094, “Diaportones A–C: Three New Metabolites From Endophytic Fungus Diaporthe foeniculina BZM-15” (Frontiers in Chemistry, 2021).
Values after ≈ are worked out from the molar mass of the structure shown.

Key:
[1] = tested on: SF-268 (CNS cancer); experiment: MTT cytotoxicity assay, SF-268 cells; assay type: cell-based, human; details: Homo sapiens; for inhibition at 1 µM / inhibition at 2 µM / inhibition at 4 µM / inhibition at 8 µM / inhibition at 16 µM / inhibition at 32 µM / inhibition at 64 µM / inhibition at 128 µM: SF-268, 72 h, SF268 cells, triplicate values, read-out: cell inhibition; for inhibition at 1 µM: c 1.00 μM; for inhibition at 2 µM: c 2.00 μM; for inhibition at 4 µM: c 4.00 μM; for inhibition at 8 µM: c 8.00 μM; for inhibition at 16 µM: c 16.00 μM; for inhibition at 32 µM: c 32.00 μM; for inhibition at 64 µM: c 64.00 μM; for inhibition at 128 µM: c 128.00 μM; for IC50: SF-268, MTT, 72 h, mean ± SD (n = 3), read-out: IC50 SF268
Procedure: (§1) The cytotoxicity of all compounds against three human tumor cell lines, SF-268 (CNS cancer), MCF-7 (breast cancer), and HepG2 (hepatoma cancer), and normal cell line LX-2 was tested using the MTT assay. Adriamycin was used as a positive control. All cells were seeded into 96-well plates at 5 × 10^4 cells/ml and incubated at 37°C under a 5% CO2 atmosphere for 24 h. Then, the tested compounds were added. After 72 h, MTT solution was added into each well, which was further incubated. The cell-free supernatant was removed and formazan crystals were subsequently dissolved in DMSO. Optical density (OD) was recorded at 490 nm on a microplate reader to calculate the IC50 values.

[2] = tested on: HepG2 (hepatoma cancer); experiment: MTT cytotoxicity assay, HepG2 cells; assay type: cell-based, human; details: Homo sapiens; for inhibition at 1 µM / inhibition at 2 µM / inhibition at 4 µM / inhibition at 8 µM / inhibition at 16 µM / inhibition at 32 µM / inhibition at 64 µM / inhibition at 128 µM: HepG2, 72 h, three replicates, read-out: cell inhibition; for inhibition at 1 µM: HepG2, c 1.00 μM; for inhibition at 2 µM: HepG2, c 2.00 μM; for inhibition at 4 µM: HepG2, c 4.00 μM; for inhibition at 8 µM: HepG2, c 8.00 μM; for inhibition at 16 µM: HepG2, c 16.00 μM; for inhibition at 32 µM: HepG2, c 32.00 μM; for inhibition at 64 µM: HepG2, c 64.00 μM; for inhibition at 128 µM: HepG2, c 128.00 μM; for IC50: HepG2, MTT, 72 h, mean ± SD (n = 3)
Procedure: as §1

[3] = tested on: normal cell line LX-2; experiment: MTT cytotoxicity assay, normal cell line LX-2; assay type: cell-based; details: for inhibition at 1 µM / inhibition at 2 µM / inhibition at 4 µM / inhibition at 8 µM / inhibition at 16 µM / inhibition at 32 µM / inhibition at 64 µM / inhibition at 128 µM / IC50: 72 h; for inhibition at 1 µM: LX-2, c 1.00 μM; for inhibition at 1 µM / inhibition at 2 µM / inhibition at 4 µM / inhibition at 8 µM / inhibition at 16 µM / inhibition at 32 µM / inhibition at 64 µM / inhibition at 128 µM: three replicates; for inhibition at 2 µM: LX-2, c 2.00 μM; for inhibition at 4 µM: LX-2, c 4.00 μM; for inhibition at 8 µM: LX-2, c 8.00 μM; for inhibition at 16 µM: LX-2, c 16.00 μM; for inhibition at 32 µM: LX-2, c 32.00 μM; for inhibition at 64 µM: LX-2, c 64.00 μM; for inhibition at 128 µM: LX-2, c 128.00 μM; for IC50: MTT, mean ± SD (n = 3); for activity on the normal cell line LX-2: in words
Procedure: as §1, with “Adriamycin was used as a positive control.” left out

[4] = tested on: MCF-7 (breast cancer); experiment: MTT cytotoxicity assay, MCF-7 cells; assay type: cell-based, human; details: Homo sapiens; for inhibition at 1 µM / inhibition at 2 µM / inhibition at 4 µM / inhibition at 8 µM / inhibition at 16 µM / inhibition at 32 µM / inhibition at 64 µM / inhibition at 128 µM: MCF7, 72 h, three replicates, read-out: cell inhibition; for inhibition at 1 µM: MCF-7, c 1.00 μM; for inhibition at 2 µM: MCF-7, c 2.00 μM; for inhibition at 4 µM: MCF-7, c 4.00 μM; for inhibition at 8 µM: MCF-7, c 8.00 μM; for inhibition at 16 µM: MCF-7, c 16.00 μM; for inhibition at 32 µM: MCF-7, c 32.00 μM; for inhibition at 64 µM: MCF-7, c 64.00 μM; for inhibition at 128 µM: MCF-7, c 128.00 μM; for IC50: MCF7, MTT, 72 h, mean ± SD (n = 3)
Procedure: as §1, with “Adriamycin was used as a positive control.” left out

[5] = tested on: three human cancer cell lines (SF-268, MCF-7, and HepG2); experiment: MTT cytotoxicity, summary over three human cancer cell lines; assay type: cell-based; details: for IC50: Homo sapiens, read-out: IC50 values, range over three cell lines
Procedure: as §1

[6] = tested on: MRSA (JCSC 3063); experiment: Antibacterial assay, broth macrodilution, MRSA; assay type: cell-based; details: Staphylococcus aureus
Procedure: Antibacterial activity of all compounds against MRSA (JCSC 3063) and E. coli (ATCC 8739) was tested by the broth […] method on 96-well plates according to the CLSI recommendation ([Li et al., 2014]).

SMILES | inhibition at 1 µM [1] | inhibition at 2 µM [1] | inhibition at 4 µM [1] | inhibition at 8 µM [1] | inhibition at 16 µM [1] | inhibition at 32 µM [1] | inhibition at 64 µM [1] | inhibition at 128 µM [1] | IC50 [1] | inhibition at 1 µM [2] | inhibition at 2 µM [2] | inhibition at 4 µM [2] | inhibition at 8 µM [2] | inhibition at 16 µM [2] | inhibition at 32 µM [2] | inhibition at 64 µM [2] | inhibition at 128 µM [2] | IC50 [2] | inhibition at 1 µM [3] | inhibition at 2 µM [3] | also measured
CC(C)[C@@H](C)C=C[C@@H](C)[C@H]1CC[C@@]2(O)C3=CC(=O)C4=CC(=O)CC[C@]4(C)[C@H]3CC[C@]12C [compound 8, 14α-hydroxyergosta-4,7,22-triene-3,6-dione] | 21.4% | 30.2% | 44.3% | 46.8% | 81.4% | 85.3% | 92.4% | 97.3% | 8.3 ± 0.5 µM | 20.3% | 27.1% | 34.1% | 46.7% | 58.6% | 78.4% | 89% | 94.3% | 15.8 ± 1.3 µM | 13.6% | 19.2% | inhibition at 4 µM [3]: 28%; inhibition at 8 µM [3]: 35.9%; inhibition at 16 µM [3]: 41.6%; inhibition at 32 µM [3]: 48.5%; inhibition at 64 µM [3]: 73.4%; inhibition at 128 µM [3]: 90.3%; IC50 [3]: > 40 µM; activity on the normal cell line LX-2 [3]: not active; inhibition at 1 µM [4]: 21.5%; inhibition at 2 µM [4]: 26.3%; inhibition at 4 µM [4]: 35.6%; inhibition at 8 µM [4]: 47.3%; inhibition at 16 µM [4]: 72.4%; inhibition at 32 µM [4]: 89.1%; inhibition at 64 µM [4]: 97.3%; inhibition at 128 µM [4]: 96.2%; IC50 [4]: 11.4 ± 0.3 µM; cell inhibition against three human cancer cell lines, in words [5]: good cell inhibition; IC50 [5]: 3.6 to 15.8 µM
CN[C@H](CC(C)C)C(=O)N[C@H]1C(=O)N[C@@H](CC(N)=O)C(=O)N[C@H]2C(=O)N[C@H]3C(=O)N[C@H](C(=O)N[C@H](C(=O)O)c4cc(O)cc(O)c4-c4cc3ccc4O)[C@H](O)c3ccc(c(Cl)c3)Oc3cc2cc(c3O[C@@H]2O[C@H](CO)[C@@H](O)[C@H](O)[C@H]2O[C@H]2C[C@](C)(N)[C@H](O)[C@H](C)O2)Oc2ccc(cc2Cl)[C@H]1O [Vancomycin] |  |  |  |  |  |  |  |  |  |  |  |  |  |  |  |  |  |  |  |  | MIC [6]: 1.25 µg/mL (≈ 0.863 µM)
CC(C)[C@@H](C)/C=C/[C@@H](C)[C@H]1CCC(=O)[C@]23CC(=O)C4=CC(=O)CC[C@]4(C)[C@H]2CC[C@]13C [compound 7, dankasterone A] | 16.3% | 31.1% | 46.5% | 58.4% | 69.7% | 90.9% | 96.1% | 99.2% | 6.7 ± 0.7 µM | 31.1% | 39.6% | 49% | 76.9% | 83.3% | 98% | 99% | 98.5% | 4.9 ± 0.9 µM | 14.7% | 18.4% | inhibition at 4 µM [3]: 26.4%; inhibition at 8 µM [3]: 31.4%; inhibition at 16 µM [3]: 33.1%; inhibition at 32 µM [3]: 43.2%; inhibition at 64 µM [3]: 81.3%; inhibition at 128 µM [3]: 92.6%; IC50 [3]: > 40 µM; activity on the normal cell line LX-2 [3]: not active; inhibition at 1 µM [4]: 35.5%; inhibition at 2 µM [4]: 47.2%; inhibition at 4 µM [4]: 64.9%; inhibition at 8 µM [4]: 72.1%; inhibition at 16 µM [4]: 81%; inhibition at 32 µM [4]: 98.2%; inhibition at 64 µM [4]: 97.5%; inhibition at 128 µM [4]: 98.3%; IC50 [4]: 3.6 ± 1.1 µM; cell inhibition against three human cancer cell lines, in words [5]: good cell inhibition; IC50 [5]: 3.6 to 15.8 µM
CC1(O)CC2OC23C(C)(C)C(Cl)CCC3(C)C1C(=O)O (stereo not shown) [compound 6, altiloxin B] | 3.44% | 5.06% | 7.23% | 9.25% | 12.9% | 22.6% | 49.5% | 60.3% | > 40 µM | 1.37% | 5.78% | 10.6% | 14.6% | 19.5% | 26.6% | 63.3% | 79.7% | > 40 µM | 8.12% | 11.8% | inhibition at 4 µM [3]: 15.9%; inhibition at 8 µM [3]: 26.5%; inhibition at 16 µM [3]: 31.3%; inhibition at 32 µM [3]: 40.5%; inhibition at 64 µM [3]: 65%; inhibition at 128 µM [3]: 73.5%; IC50 [3]: > 40 µM; inhibition at 1 µM [4]: 1.37%; inhibition at 2 µM [4]: 4.01%; inhibition at 4 µM [4]: 8.56%; inhibition at 8 µM [4]: 13%; inhibition at 16 µM [4]: 18.9%; inhibition at 32 µM [4]: 24.3%; inhibition at 64 µM [4]: 59.3%; inhibition at 128 µM [4]: 66.4%; IC50 [4]: > 40 µM
